# Results from patent US10251867B2, “Dosing regimen for a selective S1P1 receptor agonist” (ACTELION PHARMACEUTICALS LTD, priority 2008, dated 2019).
# Where two headings read alike, the source gives them in different places.
# Columns and labels:
# humans [1] = conditions: cited from earlier work
# [2] = system: multiple sclerosis patients; conditions: cited from earlier work
# healthy male subjects = test: Single-ascending dose (SAD) study AC-058-101, heart rate; assay type: in vivo, human; conditions: without up-titration; 50 mg SAD, Day 1
# Method: In the single-ascending dose (SAD) study (AC-058-101), Compound 1 was administered orally to 6 groups of […] (aged 21-47 years). Doses of 1, 3, 8, 20, 50 and 75 mg were given to sequential groups of 8 subjects (6 on active drug and 2 on placebo) in a randomized, double-blind, placebo-controlled design. The dose of 20 mg was given once in the fasted and once in the fed condition, to assess any food effects on the pharmacokinetics of Compound 1. ECGs were recorded, clinical laboratory parameters, vital signs, pulmonary function, neurological assessments (in the 75-mg dose group), plasma levels of Compound 1, and peripheral lymphocyte counts (total and subsets) were determined. All 48 randomized subjects were evaluable and no subjects withdrew or discontinued from the study. All subjects treated with Compound 1 (n=36) were included in the pharmacokinetic (PK) and pharmacodynamic (PD) analysis.
# [3] = system: healthy male and female subjects; test: Multiple-ascending dose (MAD) study AC-058-102 Part A, heart rate without up-titration; assay type: in vivo, human; conditions: Day 1, Part A
# Method: In Part A of the multiple-ascending dose (MAD) study (AC-058-102), Compound 1 was administered orally with doses of 5, 10, and 20 mg once-daily for 7 days to healthy male and female subjects (aged 22-58 years, 1:1 sex ratio) in a randomized, double-blind, placebo-controlled design. At each dose level, a group of 10 subjects were randomized to Compound 1 (8), or placebo (2). In Part A, all 30 randomized subjects completed the study and the 24 subjects who were treated with Compound 1 were included in the PK analysis.
# subjects = test: MAD study AC-058-102 Part B, up-titration scheme (10/20/40 mg), heart rate and ECG; assay type: in vivo, human; conditions: for Mean HR reduction (2.5 h post-dose vs pre-dose): with up-titration, Part B 40-mg dose group
# Method: In Part B of the MAD study, an up-titration scheme was implemented in order to reduce first-dose effects of Compound 1 on sinus node automaticity and atrioventricular- (AV-) conduction. Treatment with Compound 1 started for 4 days with 10 mg once daily, followed by 4 days with 20 mg once daily, and 7 days with 40 mg once daily. Seventeen subjects (nine females and eight males, aged 18-43 years) were randomized. Thirteen subjects received active treatment and four subjects received matching placebo. A total of 15 out of the 17 subjects completed the study as scheduled. […] The 11 subjects treated with 40-mg Compound 1 who completed the study were included in the PK analysis of Compound 1.
# humans [4] = assay type: in vivo, human
# Text: All of these effects wane with repeated dosing. […] The acute effects on heart rate, atrioventricular conduction, or fatigue and dizziness, although not seriously adverse, are undesirable, and methods to minimize these effects would be valuable for maximizing the tolerability and safety of Compound 1, and other selective S1P1 receptor agonists, and minimizing associated monitoring requirements, in the early phase of dosing initiation, or, after a drug interruption, at re-initiation of drug therapy.
# Desensitization has been sustained over this 24-hour dosing interval. […] Desensitization has not been sustained over this 7-day dosing interval of the 20-mg dose. […]
compound,measurement,setting,value
CCCCCCCCc1ccc(CCC(N)(CO)CO)cc1 [FTY720],Effect on heart rate,humans [1],reduces heart rate in humans
same,Rate of clinical relapses,[2],reduce the rate of clinical relapses
"CCC/N=C1\S/C(=C\c2ccc(OC[C@H](O)CO)c(Cl)c2)C(=O)N1c1ccccc1C [Compound 1, (R)-5-[3-chloro-4-(2,3-dihydroxy-propoxy)-benz[Z]ylidene]-2-([Z]-propylimino)-3-o-tolyl-thiazolidin-4-one]",Mean HR reduction (2.5 h post-dose vs baseline),healthy male subjects,18 bpm
same,Mean HR reduction (2.5 h post-dose vs baseline),[3]; 10 mg,14 bpm
same,Mean HR reduction (2.5 h post-dose vs baseline),[3]; 20 mg,22 bpm
same,Second or third degree AV-blocks,subjects; Part B,No second or third degree AV-blocks were observed
same,Effects on other ECG variables,"subjects; Part B, multiple dosing",No relevant effects on other ECG variables were recorded
same,Discontinuation of dosing due to adverse events,"subjects; Part B, 13 subjects on active treatment",Dosing was discontinued in two subjects on active treatment due to adverse events
same,AV-block first degree,"subjects; Part B, after first 10 mg dose on Day 1",only one subject reported a transient AV-block first degree
same,Mean HR reduction at 2.5 h post-dose vs pre-dose,"subjects; Part B, day 2 (10 mg)",2 bpm
same,Mean HR reduction at 2.5 h post-dose vs pre-dose,"subjects; Part B, day 3 (10 mg)",1 bpm
same,Mean HR reduction at 2.5 h post-dose vs pre-dose,"subjects; Part B, day 4 (10 mg)",1 bpm
same,Mean HR reduction at 2.5 h post-dose vs pre-dose,"subjects; Part B, day 6 (20 mg)",4 bpm
same,Mean HR reduction at 2.5 h post-dose vs pre-dose,"subjects; Part B, day 7 (20 mg)",3 bpm
same,Mean HR reduction at 2.5 h post-dose vs pre-dose,"subjects; Part B, day 8 (20 mg)",3 bpm
same,Mean HR reduction (2.5 h post-dose vs pre-dose),"subjects; 10 mg, Day 1",14 bpm
same,Mean HR reduction (2.5 h post-dose vs pre-dose),"subjects; 20 mg, Day 5",9 bpm
same,Mean HR reduction (2.5 h post-dose vs pre-dose),"subjects; 40 mg, Day 9",4 bpm
same,"Acute effects on heart rate and rhythm and fatigue/dizziness, dose comparison",humans [4]; in vivo,milder at 10 mg than at 20 mg
same,Effect on heart rate,humans [4]; in vivo,transiently reduces heart rate
same,Fatigue or dizziness,humans [4]; in vivo,Occasional fatigue or dizziness
same,Heart rhythm,humans [4]; in vivo,irregular heart rhythm (so-called Wenckebach rhythm)
same,PR interval in the electrocardiogram (ECG),humans [4]; in vivo,transient increases in the PR interval
same,Time of maximal heart rate effect after administration,humans [4]; in vivo,1 to 3 h
same,Acute heart rate reduction,"humans [4]; in vivo, po",results in an acute heart rate reduction on Day 1
same,Acute heart rate reduction compared to the pre-dose value,"humans [4]; in vivo, po",no longer observed
same,Number of peripheral blood lymphocytes,humans [4]; repeated daily oral dosing of 5 mg or more,"consistent, sustained, and dose-dependent reduction in the number of peripheral blood lymphocytes"
